Like-named read-outs stand apart in the source and are kept apart here.
How the values were obtained:
[1] = target: T1, SSTR2 Y302A (Homo sapiens, UniProt P30874, Y302A); experiment: Intracellular Ca2+ mobilization signaling assay, SSTR2 Y302A mutant; type: cell-based; details: read-out: Ca2+ Emax
T1 construct: Flag; expressed in transfected cells; host or cells: 293 T cells (pcDNA3.1, co-transfected with Gqi9)
Description: (§1) SSTR2 (wild-type or mutant) and Gqi9 cloned in pcDNA3.1 vector were co-transfected into 293 T cells at a ratio of 2:1 with Lipo3000. After 24 h, the cells were plated in poly-D-lysine-coated 96-well plates. After cells were washed with calcium buffer (HBSS buffer supplemented with 0.1% BSA, 2.5 mM probenecid, pH 7.4), Fluo4 AM was added and incubated for 50 min in a 37 °C incubator. After washing with calcium buffer, 50 μL calcium buffer was added to each well. Fluorescence intensities were recorded simultaneously from all the wells by a FLIPR. Plates were illuminated at 488 nm and fluorescence emission was recorded at 540 nm. The fluorescence intensity was measured at 1-s intervals for 410 s. This procedure was followed by the addition of 50 μL agonist. Data were normalized to the baseline response of the ligand. Data were analyzed using nonlinear regression in GraphPad Prism software 9.0.

[2] = target: T2, SSTR2-Q126A (Homo sapiens, UniProt P30874, Q126A); experiment: Intracellular Ca2+ mobilization signaling assay, SSTR2 Q126A mutant; type: cell-based; details: read-out: Ca2+ Emax
T2 construct: Flag; expressed in transfected cells; host or cells: 293 T cells (pcDNA3.1, co-transfected with Gqi9)
Description: as §1

[3] = target: T3, SSTR2 F294S (Homo sapiens, UniProt P30874, F294S); experiment: Intracellular Ca2+ mobilization signaling assay, SSTR2 F294S mutant; type: cell-based; details: read-out: Ca2+ Emax
T3 construct: Flag; expressed in transfected cells; host or cells: 293 T cells (pcDNA3.1, co-transfected with Gqi9)
Description: as §1

[4] = target: T4, SSTR2 D122A (Homo sapiens, UniProt P30874, D122A); experiment: Intracellular Ca2+ mobilization signaling assay, SSTR2 D122A mutant; type: cell-based; details: read-out: Ca2+ Emax
T4 construct: Flag; expressed in transfected cells; host or cells: 293 T cells (pcDNA3.1, co-transfected with Gqi9)
Description: as §1

[5] = target: T5, SSTR2 (wild-type) (Homo sapiens, UniProt P30874); experiment: Intracellular Ca2+ mobilization signaling assay, wild-type SSTR2; type: cell-based
T5 construct: Flag; expressed in transfected cells; host or cells: 293 T cells (pcDNA3.1, co-transfected with Gqi9)
Description: as §1

[6] = target: T6, SSTR2-Q102S (Homo sapiens, UniProt P30874, Q102S); experiment: Intracellular Ca2+ mobilization signaling assay, SSTR2 Q102S mutant; type: cell-based; details: for Emax: read-out: Ca2+ Emax
T6 construct: Flag; expressed in transfected cells; host or cells: 293 T cells (pcDNA3.1, co-transfected with Gqi9)
Description: as §1

[7] = target: T7, SSTR2 F272A (Homo sapiens, UniProt P30874, F272A); experiment: Intracellular Ca2+ mobilization signaling assay, SSTR2 F272A mutant; type: cell-based; details: percentage of wild-type SSTR2 response
T7 construct: Flag; expressed in transfected cells; host or cells: 293 T cells (pcDNA3.1, co-transfected with Gqi9)
Description: as §1

[8] = target: T8, SSTR2 F208A (Homo sapiens, UniProt P30874, F208A); experiment: Intracellular Ca2+ mobilization signaling assay, SSTR2 F208A mutant; type: cell-based; details: read-out: Ca2+ Emax
T8 construct: Flag; expressed in transfected cells; host or cells: 293 T cells (pcDNA3.1, co-transfected with Gqi9)
Description: as §1

[9] = target: T9, SSTR2 Q102A (Homo sapiens, UniProt P30874, Q102A); experiment: Intracellular Ca2+ mobilization signaling assay, SSTR2 Q102A mutant; type: cell-based; details: for Emax: read-out: Ca2+ Emax
T9 construct: Flag; expressed in transfected cells; host or cells: 293 T cells (pcDNA3.1, co-transfected with Gqi9)
Description: as §1

[10] = target: T10, SSTR2 N276A (Homo sapiens, UniProt P30874, N276A); experiment: Intracellular Ca2+ mobilization signaling assay, SSTR2 N276A mutant; type: cell-based; details: read-out: Ca2+ Emax
T10 construct: Flag; expressed in transfected cells; host or cells: 293 T cells (pcDNA3.1, co-transfected with Gqi9)
Description: as §1

[11] = cited from earlier work
[12] = target: T11, SSTR2(1-359)-Largebit (Homo sapiens, UniProt P30874); experiment: Intracellular Ca2+ mobilization signaling assay, SSTR2(1-359)-Largebit construct; type: cell-based; details: maximal response as percentage of wild-type SSTR2 response
T11 construct: SSTR2(1-359)-; Flag; expressed in transfected cells; host or cells: 293 T cells (pcDNA3.1, co-transfected with Gqi9)
Description: as §1

[13] = test system: SSTR1; details: SSTR1 (all five SSTRs); cited from earlier work
[14] = test system: SSTR2; details: SSTR2 (all five SSTRs); cited from earlier work
[15] = test system: SSTR5; details: SSTR5 (all five SSTRs); cited from earlier work
[16] = test system: SSTR4; details: SSTR4 (all five SSTRs); cited from earlier work
[17] = test system: SSTR3; details: SSTR3 (all five SSTRs); cited from earlier work
[18] = target: wild-type SSTR2 (pcDNA3.1, functional assays) (human) (UniProt P30874)
[19] = target: SSTR2-Q126A (human) (UniProt P30874)
[20] = target: SSTR2-Q102^2.63 substituted with alanine (human) (UniProt P30874)
SSTR2-Q102^2.63 substituted with alanine (human), sequence (P30874 whole entry Q102A): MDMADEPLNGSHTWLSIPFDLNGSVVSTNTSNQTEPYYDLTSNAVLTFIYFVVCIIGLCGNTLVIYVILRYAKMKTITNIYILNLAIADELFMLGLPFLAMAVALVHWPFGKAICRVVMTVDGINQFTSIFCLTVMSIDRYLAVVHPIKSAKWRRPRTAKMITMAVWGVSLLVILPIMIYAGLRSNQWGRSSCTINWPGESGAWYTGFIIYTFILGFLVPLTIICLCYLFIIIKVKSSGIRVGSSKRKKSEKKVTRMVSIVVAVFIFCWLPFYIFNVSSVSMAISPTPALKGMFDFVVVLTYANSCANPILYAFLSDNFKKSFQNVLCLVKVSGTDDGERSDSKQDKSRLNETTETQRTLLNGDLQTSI

T9 sequence (P30874 whole entry Q102A): as above
T6 sequence (P30874 whole entry Q102S): as the sequence (P30874 whole entry Q102A) above, with A102S counted along it
T10 sequence (P30874 whole entry N276A): as the sequence (P30874 whole entry Q102A) above, with A102Q, N276A counted along it
T8 sequence (P30874 whole entry F208A): as the sequence (P30874 whole entry Q102A) above, with A102Q, F208A counted along it
T4 sequence (P30874 whole entry D122A): as the sequence (P30874 whole entry Q102A) above, with A102Q, D122A counted along it
T2 sequence (P30874 whole entry Q126A): as the sequence (P30874 whole entry Q102A) above, with A102Q, Q126A counted along it
T1 sequence (P30874 whole entry Y302A): as the sequence (P30874 whole entry Q102A) above, with A102Q, Y302A counted along it
T7 sequence (P30874 whole entry F272A): as the sequence (P30874 whole entry Q102A) above, with A102Q, F272A counted along it
wild-type SSTR2 (pcDNA3.1, functional assays) (human), sequence (P30874 whole entry): as the sequence (P30874 whole entry Q102A) above, with A102Q counted along it
T5 sequence (P30874 whole entry): as the sequence (P30874 whole entry Q102A) above, with A102Q counted along it
SSTR2-Q126A (human), sequence (P30874 whole entry Q126A): as the sequence (P30874 whole entry Q102A) above, with A102Q, Q126A counted along it
T11 sequence (P30874 1-359): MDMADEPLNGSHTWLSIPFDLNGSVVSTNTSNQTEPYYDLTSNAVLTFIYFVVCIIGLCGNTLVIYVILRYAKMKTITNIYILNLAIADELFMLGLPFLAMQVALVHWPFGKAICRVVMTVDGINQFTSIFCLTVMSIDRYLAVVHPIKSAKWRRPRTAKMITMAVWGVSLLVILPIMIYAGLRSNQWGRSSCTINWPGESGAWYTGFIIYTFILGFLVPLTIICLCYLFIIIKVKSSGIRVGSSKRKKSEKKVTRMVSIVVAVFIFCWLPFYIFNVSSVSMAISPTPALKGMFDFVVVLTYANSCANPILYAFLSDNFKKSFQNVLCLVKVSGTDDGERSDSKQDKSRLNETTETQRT
T3 sequence (P30874 whole entry F294S): as the sequence (P30874 whole entry Q102A) above, with A102Q, F294S counted along it

Compound: CC(C)[C@@H]1NC(=O)[C@H](CCCCN)NC(=O)[C@@H](Cc2c[nH]c3ccccc23)NC(=O)[C@H](Cc2ccc(O)cc2)NC(=O)[C@@H](NC(=O)[C@H](N)Cc2ccc3ccccc3c2)CSSC[C@@H](C(=O)N[C@H](C(N)=O)[C@@H](C)O)NC1=O [Lanreotide]
- Emax [1]: 14 ± 2.2%
- Emax [2]: 25.2 ± 1.8%
- Emax [3]: 11.4 ± 0.8%
- Emax [4]: 11.7 ± 4.3%
- EC50 [5]: 50.1 nM
- EC50 [6]: 501 nM
- Effect of mutation on EC50 ([6]; SSTR2-Q102S versus wild-type SSTR2): highly attenuated EC50
- Emax [6]: 54.8 ± 1.6%
- Emax [7]: 12.4 ± 1.1%
- Emax [8]: 27.9 ± 4%
- EC50 [9]: 398 nM
- Emax [9]: 56.1 ± 4.2%
- Emax [10]: 13.8 ± 1.6%
- half-life [11]: 1 h

Compound: C[C@@H](O)[C@@H]1NC(=O)[C@H](CCCCN)NC(=O)[C@@H](Cc2c[nH]c3ccccc23)NC(=O)[C@H](Cc2ccccc2)NC(=O)[C@@H](NC(=O)[C@H](N)Cc2ccccc2)CSSC[C@@H](C(=O)N[C@H](CO)[C@@H](C)O)NC1=O [Octreotide]
- Emax ([1]; Y302A mutant, percentage of wild-type SSTR2 response): 13.7 ± 3.2%
- Emax ([2]; Q126A mutant, percentage of wild-type SSTR2 response): 83.5 ± 5.9%
- Emax ([4]; D122A mutant, percentage of wild-type SSTR2 response): 5.6 ± 0.5%
- Emax ([6]; Q102S mutant, percentage of wild-type SSTR2 response): 91.9 ± 6.5%
- Emax ([8]; F208A mutant, percentage of wild-type SSTR2 response): 98.7 ± 6.9%
- Emax [12]: 82.6 ± 7.4%
- Emax ([9]; Q102A mutant, percentage of wild-type SSTR2 response): 104 ± 12.1%
- Emax ([10]; N276A mutant, percentage of wild-type SSTR2 response): 22.3 ± 5.4%
- half-life [11]: 2 h

Compound: C[C@H](N)C(=O)NCC(=O)N[C@H]1CSSC[C@@H](C(=O)O)NC(=O)[C@H](CO)NC(=O)[C@H]([C@@H](C)O)NC(=O)[C@H](Cc2ccccc2)NC(=O)[C@H]([C@@H](C)O)NC(=O)[C@H](CCCCN)NC(=O)[C@H](Cc2c[nH]c3ccccc23)NC(=O)[C@H](Cc2ccccc2)NC(=O)[C@H](Cc2ccccc2)NC(=O)[C@H](CC(N)=O)NC(=O)[C@H](CCCCN)NC1=O [SST14]
- binding affinity [13]: high binding affinity
- binding affinity [14]: high binding affinity
- binding affinity [15]: high binding affinity
- binding affinity [16]: high binding affinity
- binding affinity [17]: high binding affinity

Compound: octreotide (peptide)
- EC50 of Ca^2+ mobilization (293 T cells with Gqi9) [18]: 20 nM
- EC50 of Ca^2+ mobilization (293 T cells with Gqi9) [19]: 100 nM
- EC50 of Ca^2+ mobilization (293 T cells with Gqi9) [20]: 1300 nM
